Measured values published in patent publication US10364247B2, “Preparation and use of novel protein kinase inhibitors” (Ruijin Hospital Affiliated to Shanghai Jiao Tong University …, priority 2015, dated 2019).

Tests used:
Assay in all cases: KINOMEscan competition binding
[1] = target: T1, JAK1(JH1domain-catalytic) (Homo sapiens, UniProt P23458); settings: read-out: Percent Control
T1 construct: JAK1(JH1domain-catalytic)
Procedure: (§1) KINOMEscan™ is based on a competition binding assay that quantitatively measures the ability of a compound to compete with an immobilized, active-site directed ligand (Fabian et al. (2005) Nat. Biotechnol. 23, 329; Karaman et al. (2008) Nat. Biotechnol. 26, 127). The compound was screened at 10 μM, and results for primary screen binding interactions are reported as ‘% Ctrl’, where lower numbers indicate stronger hits. The results for kinases targets with a % Ctrl less than 30 can be seen in Table 2.

[2] = target: PFCDPK1(P. falciparum) (Plasmodium falciparum, UniProt P62344); settings: PFCDPK1(P. falciparum) (Entrez CDPK1), read-out: Percent Control
Procedure: as §1

[3] = target: ABL1(Q252H)-phosphorylated (Homo sapiens, UniProt P00519, Q252H); settings: read-out: Percent Control
Procedure: as §1

[4] = target: T2, EPHB1 (Homo sapiens, UniProt P54762); settings: read-out: Percent Control
T2 construct: purchased KINOMEscan (panel service)
Procedure: as §1

[5] = target: ABL1-phosphorylated (Homo sapiens, UniProt P00519); settings: read-out: Percent Control
Procedure: as §1

[6] = target: EPHB2 (Homo sapiens, UniProt P29323); settings: read-out: Percent Control
Procedure: as §1

[7] = target: KIT(L576P) (Homo sapiens, UniProt P10721, L576P); settings: read-out: Percent Control
Procedure: as §1

[8] = target: T3, FLT3(R834Q) (Homo sapiens, UniProt P36888, R834Q); settings: read-out: Percent Control
T3 construct: purchased KINOMEscan (screening service)
Procedure: as §1

[9] = target: ZAK (Homo sapiens, UniProt Q9NYL2); settings: read-out: Percent Control
Procedure: as §1

[10] = target: EGFR(L747-S752del, P753S) (Homo sapiens, UniProt P00533, DEL747-752/P753S); settings: read-out: Percent Control
Chain of EGFR(L747-S752del, P753S) (P00533 with tags, fused parts or gaps DEL747-752/P753S): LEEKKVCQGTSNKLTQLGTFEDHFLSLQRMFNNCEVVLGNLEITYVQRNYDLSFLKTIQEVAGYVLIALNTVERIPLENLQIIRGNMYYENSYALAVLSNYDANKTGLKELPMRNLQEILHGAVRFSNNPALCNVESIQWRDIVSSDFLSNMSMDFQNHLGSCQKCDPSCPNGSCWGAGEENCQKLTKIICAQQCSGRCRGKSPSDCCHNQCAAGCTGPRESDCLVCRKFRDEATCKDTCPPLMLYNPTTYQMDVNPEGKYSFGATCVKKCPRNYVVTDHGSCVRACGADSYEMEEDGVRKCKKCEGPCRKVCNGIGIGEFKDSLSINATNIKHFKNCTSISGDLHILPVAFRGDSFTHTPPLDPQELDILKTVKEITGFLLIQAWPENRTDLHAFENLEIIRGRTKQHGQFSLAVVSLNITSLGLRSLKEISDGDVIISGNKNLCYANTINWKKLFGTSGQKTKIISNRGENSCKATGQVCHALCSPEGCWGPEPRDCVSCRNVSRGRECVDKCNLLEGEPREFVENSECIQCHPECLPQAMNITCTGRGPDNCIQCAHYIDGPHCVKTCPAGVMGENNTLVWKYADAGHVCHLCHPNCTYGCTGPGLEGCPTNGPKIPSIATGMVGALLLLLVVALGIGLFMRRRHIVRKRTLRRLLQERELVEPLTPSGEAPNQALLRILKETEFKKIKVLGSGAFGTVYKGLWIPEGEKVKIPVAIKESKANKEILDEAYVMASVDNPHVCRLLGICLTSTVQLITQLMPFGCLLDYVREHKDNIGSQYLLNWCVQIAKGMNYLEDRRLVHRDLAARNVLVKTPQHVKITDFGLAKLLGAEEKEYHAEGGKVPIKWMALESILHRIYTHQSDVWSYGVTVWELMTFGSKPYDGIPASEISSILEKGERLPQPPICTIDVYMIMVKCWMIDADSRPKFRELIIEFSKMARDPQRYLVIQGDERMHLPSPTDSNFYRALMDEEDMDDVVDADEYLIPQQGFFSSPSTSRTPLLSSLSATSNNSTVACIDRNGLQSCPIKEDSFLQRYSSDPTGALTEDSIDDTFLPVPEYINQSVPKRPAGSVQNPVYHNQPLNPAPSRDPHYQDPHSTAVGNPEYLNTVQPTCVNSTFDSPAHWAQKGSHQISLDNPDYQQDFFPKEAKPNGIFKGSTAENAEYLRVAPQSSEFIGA
Procedure: as §1

[11] = target: ABL1(Q252H)-nonphosphorylated (Homo sapiens, UniProt P00519, Q252H); settings: read-out: Percent Control
Procedure: as §1

[12] = target: FGR (Homo sapiens, UniProt P09769); settings: read-out: Percent Control
Procedure: as §1

[13] = target: EPHB6 (Homo sapiens, UniProt O15197); settings: read-out: Percent Control
Chain of EPHB6 (O15197 32-1021): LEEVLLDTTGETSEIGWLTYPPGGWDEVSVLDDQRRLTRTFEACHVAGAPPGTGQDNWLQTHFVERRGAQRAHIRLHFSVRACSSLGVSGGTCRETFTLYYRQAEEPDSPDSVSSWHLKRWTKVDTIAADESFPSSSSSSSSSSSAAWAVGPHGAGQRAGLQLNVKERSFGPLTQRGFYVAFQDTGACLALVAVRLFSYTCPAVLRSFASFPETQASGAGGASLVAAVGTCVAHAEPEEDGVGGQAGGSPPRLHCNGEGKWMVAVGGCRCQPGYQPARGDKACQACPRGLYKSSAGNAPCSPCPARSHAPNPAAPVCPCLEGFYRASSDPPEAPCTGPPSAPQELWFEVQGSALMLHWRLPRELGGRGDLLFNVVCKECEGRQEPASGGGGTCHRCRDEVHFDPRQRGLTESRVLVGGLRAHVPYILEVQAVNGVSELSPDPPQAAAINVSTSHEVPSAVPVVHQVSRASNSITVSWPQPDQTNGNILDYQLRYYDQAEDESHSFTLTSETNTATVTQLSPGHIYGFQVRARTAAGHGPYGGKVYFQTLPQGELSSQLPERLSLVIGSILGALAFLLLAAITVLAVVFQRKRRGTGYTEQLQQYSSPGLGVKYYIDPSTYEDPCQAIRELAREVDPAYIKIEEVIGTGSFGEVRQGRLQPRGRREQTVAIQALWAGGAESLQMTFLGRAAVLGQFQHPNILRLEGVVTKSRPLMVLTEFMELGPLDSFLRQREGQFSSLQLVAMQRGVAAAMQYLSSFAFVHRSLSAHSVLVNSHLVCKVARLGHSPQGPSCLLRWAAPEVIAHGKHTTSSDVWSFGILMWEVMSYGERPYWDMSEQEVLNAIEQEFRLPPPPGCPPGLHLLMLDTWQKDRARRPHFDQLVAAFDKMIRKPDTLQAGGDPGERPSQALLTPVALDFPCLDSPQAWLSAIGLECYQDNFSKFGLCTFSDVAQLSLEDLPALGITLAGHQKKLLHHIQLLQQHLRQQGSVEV
Procedure: as §1

[14] = target: VEGFR2 (Homo sapiens, UniProt P35968); settings: VEGFR2 (Entrez KDR), read-out: Percent Control
Procedure: as §1

[15] = target: ABL1(F317I)-nonphosphorylated (Homo sapiens, UniProt P00519, F317I); settings: read-out: Percent Control
Procedure: as §1

[16] = target: FLT1 (Homo sapiens, UniProt P17948); settings: read-out: Percent Control
Procedure: as §1

[17] = target: T4, WNK3 (Homo sapiens, UniProt Q9BYP7); settings: read-out: Percent Control
T4 construct: purchased KINOMEscan (screening service)
Procedure: as §1

[18] = target: BRAF (Homo sapiens, UniProt P15056); settings: read-out: Percent Control
Procedure: as §1

[19] = target: T5, AURKC (Homo sapiens, UniProt Q9UQB9); settings: read-out: Percent Control
T5 construct: purchased KINOMEscan (screening service)
Procedure: as §1

[20] = target: EPHA4 (Homo sapiens, UniProt P54764); settings: read-out: Percent Control
Procedure: as §1

[21] = target: T6, ABL2 (Homo sapiens, UniProt P42684); settings: read-out: Percent Control
T6 construct: purchased KINOMEscan (panel service)
T6 sequence (P42684 whole entry): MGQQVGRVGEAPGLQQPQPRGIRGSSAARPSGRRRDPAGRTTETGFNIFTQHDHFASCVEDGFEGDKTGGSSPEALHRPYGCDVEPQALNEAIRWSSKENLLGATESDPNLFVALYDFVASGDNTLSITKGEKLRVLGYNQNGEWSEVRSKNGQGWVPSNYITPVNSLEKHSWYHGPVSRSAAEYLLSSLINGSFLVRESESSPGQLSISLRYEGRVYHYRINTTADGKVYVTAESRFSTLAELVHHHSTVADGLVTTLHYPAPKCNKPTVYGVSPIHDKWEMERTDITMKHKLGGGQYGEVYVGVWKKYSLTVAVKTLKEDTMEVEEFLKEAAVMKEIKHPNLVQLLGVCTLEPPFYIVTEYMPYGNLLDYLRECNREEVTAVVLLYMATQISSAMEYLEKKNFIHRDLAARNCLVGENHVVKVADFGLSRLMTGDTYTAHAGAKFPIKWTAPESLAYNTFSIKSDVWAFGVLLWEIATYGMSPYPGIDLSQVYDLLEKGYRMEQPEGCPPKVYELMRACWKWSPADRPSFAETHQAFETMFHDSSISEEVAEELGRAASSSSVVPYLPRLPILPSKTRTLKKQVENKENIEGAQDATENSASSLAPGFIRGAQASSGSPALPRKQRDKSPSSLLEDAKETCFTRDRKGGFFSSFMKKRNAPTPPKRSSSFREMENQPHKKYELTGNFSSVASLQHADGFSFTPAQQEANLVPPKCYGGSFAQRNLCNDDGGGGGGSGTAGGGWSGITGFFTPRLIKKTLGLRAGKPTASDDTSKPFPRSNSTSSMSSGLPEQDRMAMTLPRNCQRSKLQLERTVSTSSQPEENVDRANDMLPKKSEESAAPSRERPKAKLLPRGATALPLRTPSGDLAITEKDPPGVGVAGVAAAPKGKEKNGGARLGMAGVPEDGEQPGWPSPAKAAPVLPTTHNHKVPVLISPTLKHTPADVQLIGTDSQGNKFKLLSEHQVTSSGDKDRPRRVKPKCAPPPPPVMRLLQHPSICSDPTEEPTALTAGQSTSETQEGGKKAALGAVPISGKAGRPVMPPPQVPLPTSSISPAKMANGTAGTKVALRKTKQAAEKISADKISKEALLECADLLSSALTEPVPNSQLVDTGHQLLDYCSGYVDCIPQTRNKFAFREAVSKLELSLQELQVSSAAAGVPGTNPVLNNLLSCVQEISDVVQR
Procedure: as §1

[22] = target: ABL1(T315I)-nonphosphorylated (Homo sapiens, UniProt P00519, T315I); settings: read-out: Percent Control
Procedure: as §1

[23] = target: T7, MAP3K1 (Homo sapiens, UniProt Q13233); settings: read-out: Percent Control
T7 construct: purchased KINOMEscan (screening platform)
Procedure: as §1

[24] = target: KIT(A829P) (Homo sapiens, UniProt P10721, A829P); settings: read-out: Percent Control
Procedure: as §1

[25] = target: T8, RIPK1 (Homo sapiens, UniProt Q13546); settings: read-out: Percent Control
T8 construct: purchased KINOMEscan (screening platform)
Procedure: as §1

[26] = target: FER (Homo sapiens, UniProt P16591); settings: read-out: Percent Control
Procedure: as §1

[27] = target: FES (Homo sapiens, UniProt P07332); settings: read-out: Percent Control
Procedure: as §1

[28] = target: ERBB4 (Homo sapiens, UniProt Q15303); settings: read-out: Percent Control
Procedure: as §1

[29] = target: BMX (Homo sapiens, UniProt P51813); settings: read-out: Percent Control
Procedure: as §1

[30] = target: EGFR(L861Q) (Homo sapiens, UniProt P00533, L861Q); settings: read-out: Percent Control
Chain of EGFR(L861Q) (P00533 25-1210 L861Q): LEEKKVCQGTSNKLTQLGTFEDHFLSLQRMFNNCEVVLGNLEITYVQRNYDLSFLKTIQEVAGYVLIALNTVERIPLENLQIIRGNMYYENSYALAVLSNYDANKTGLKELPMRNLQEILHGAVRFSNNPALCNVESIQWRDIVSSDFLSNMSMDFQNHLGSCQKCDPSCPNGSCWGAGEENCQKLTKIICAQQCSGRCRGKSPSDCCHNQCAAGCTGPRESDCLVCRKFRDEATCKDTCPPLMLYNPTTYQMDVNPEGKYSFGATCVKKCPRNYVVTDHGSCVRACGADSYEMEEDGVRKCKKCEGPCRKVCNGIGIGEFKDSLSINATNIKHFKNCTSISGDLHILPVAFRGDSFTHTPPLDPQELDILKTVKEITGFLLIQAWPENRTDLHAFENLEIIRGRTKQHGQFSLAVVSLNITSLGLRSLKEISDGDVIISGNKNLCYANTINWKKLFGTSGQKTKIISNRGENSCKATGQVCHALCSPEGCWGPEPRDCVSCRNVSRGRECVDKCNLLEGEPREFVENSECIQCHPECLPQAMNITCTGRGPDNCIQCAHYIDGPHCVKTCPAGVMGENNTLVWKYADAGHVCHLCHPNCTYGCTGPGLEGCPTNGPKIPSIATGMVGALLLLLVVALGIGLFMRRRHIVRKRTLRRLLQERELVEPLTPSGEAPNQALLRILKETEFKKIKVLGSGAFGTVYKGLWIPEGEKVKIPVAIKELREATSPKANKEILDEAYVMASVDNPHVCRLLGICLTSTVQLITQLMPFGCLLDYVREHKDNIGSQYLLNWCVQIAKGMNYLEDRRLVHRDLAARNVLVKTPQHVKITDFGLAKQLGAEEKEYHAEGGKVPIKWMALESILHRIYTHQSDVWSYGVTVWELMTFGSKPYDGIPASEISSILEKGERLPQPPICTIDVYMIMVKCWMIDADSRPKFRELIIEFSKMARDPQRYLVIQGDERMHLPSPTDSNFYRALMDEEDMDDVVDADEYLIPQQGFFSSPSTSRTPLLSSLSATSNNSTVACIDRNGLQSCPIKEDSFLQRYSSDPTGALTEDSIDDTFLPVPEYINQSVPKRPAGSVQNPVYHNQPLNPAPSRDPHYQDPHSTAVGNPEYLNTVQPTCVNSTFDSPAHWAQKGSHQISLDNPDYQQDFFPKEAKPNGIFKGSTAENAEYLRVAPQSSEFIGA
Procedure: as §1

[31] = target: T9, LCK (Homo sapiens, UniProt P06239); settings: read-out: Percent Control
T9 construct: purchased KINOMEscan (panel service)
T9 sequence (P06239 whole entry): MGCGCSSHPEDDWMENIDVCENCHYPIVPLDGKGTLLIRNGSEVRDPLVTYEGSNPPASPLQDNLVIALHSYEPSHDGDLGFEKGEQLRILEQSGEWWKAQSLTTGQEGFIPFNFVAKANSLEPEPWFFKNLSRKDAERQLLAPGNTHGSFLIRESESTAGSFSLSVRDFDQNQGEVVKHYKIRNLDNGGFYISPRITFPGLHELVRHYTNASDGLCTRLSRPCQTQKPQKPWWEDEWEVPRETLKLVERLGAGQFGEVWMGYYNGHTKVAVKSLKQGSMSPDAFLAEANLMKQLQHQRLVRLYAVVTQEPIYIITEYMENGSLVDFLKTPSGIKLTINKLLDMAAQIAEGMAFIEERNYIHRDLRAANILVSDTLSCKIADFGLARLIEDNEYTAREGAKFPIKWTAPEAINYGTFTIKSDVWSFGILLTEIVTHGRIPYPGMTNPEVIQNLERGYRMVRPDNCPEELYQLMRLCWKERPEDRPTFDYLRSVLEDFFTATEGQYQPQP
Procedure: as §1

[32] = target: HCK (Homo sapiens, UniProt P08631); settings: read-out: Percent Control
Procedure: as §1

[33] = target: TEC (Homo sapiens, UniProt P42680); settings: read-out: Percent Control
Procedure: as §1

[34] = target: T10, TNK1 (Homo sapiens, UniProt Q13470); settings: read-out: Percent Control
T10 construct: purchased KINOMEscan (screening service)
Procedure: as §1

[35] = target: YSK4 (Homo sapiens, UniProt Q56UN5); settings: read-out: Percent Control
Procedure: as §1

[36] = target: MAP3K3 (Homo sapiens, UniProt Q99759); settings: read-out: Percent Control
Procedure: as §1

[37] = target: KIT(V559D) (Homo sapiens, UniProt P10721, V559D); settings: read-out: Percent Control
Procedure: as §1

For `Cc1ccc(Nc2ncc3c(n2)N(C)CN(c2cc(NC(=O)c4cccc(C(F)(F)F)c4)ccc2C)C3)cn1` [IA-9, N-(4-methyl-3-(1-methyl-7-((6-methylpyridin-3-yl)amino)-1,4-dihydropyrimido[4,5-d]pyrimidin-3(2H)-yl)phenyl)-3-(trifluoromethyl)benzamide], the remaining binding at 10 µM [1] was 2%, the remaining binding at 10 µM [2] was 0.35% and the remaining binding at 10 µM [3] was 0.2%. It also gave a remaining binding at 10 µM [4] of 0.15%, a remaining binding at 10 µM [5] of 0.3% and a remaining binding at 10 µM [6] of 0%. For the same compound, the remaining binding at 10 µM [7] was 1.2%, the remaining binding at 10 µM [8] was 20% and the remaining binding at 10 µM [9] was 0.55%. For the same compound, the remaining binding at 10 µM [10] was 0%, the remaining binding at 10 µM [11] was 0.75% and the remaining binding at 10 µM [12] was 0%. It also gave a remaining binding at 10 µM [13] of 0.3%, a remaining binding at 10 µM [14] of 2% and a remaining binding at 10 µM [15] of 0%. It also gave a remaining binding at 10 µM [16] of 0.55%, a remaining binding at 10 µM [17] of 18% and a remaining binding at 10 µM [18] of 0.5%. It also gave a remaining binding at 10 µM [19] of 6.9%, a remaining binding at 10 µM [20] of 0% and a remaining binding at 10 µM [21] of 0.1%. The remaining binding at 10 µM [22] was 0%, the remaining binding at 10 µM [23] was 29% and the remaining binding at 10 µM [24] was 3.6%. It also gave a remaining binding at 10 µM [25] of 28%, a remaining binding at 10 µM [26] of 3.6% and a remaining binding at 10 µM [27] of 0.7%. It also gave a remaining binding at 10 µM [28] of 0%, a remaining binding at 10 µM [29] of 0.75% and a remaining binding at 10 µM [30] of 0%. The remaining binding at 10 µM [31] was 0.15%, the remaining binding at 10 µM [32] was 0.55% and the remaining binding at 10 µM [33] was 0.55%. It also gave a remaining binding at 10 µM [34] of 12%, a remaining binding at 10 µM [35] of 0.3% and a remaining binding at 10 µM [36] of 1.3%. It also gave a remaining binding at 10 µM [37] of 0%.
